Source: patent US5498788A, “Inclusion complexes of clavulanic acid and of potassium salts thereof with hydrophobic β-cyclodextrin derivatives a process for the preparation thereof” (LEK, tovarna farmacevtskih, priority 1992, dated 1996)

Legend:
[1] = Stability test of complexed and uncomplexed potassium clavulanate in artificial gastric juice (pH 1.2, 37° C.); format: physicochemical
Protocol: Stability test of complexed and uncomplexed potassium clavulanate in artificial gastric juice (pH 1.2) at the temperature of 37° C.
For the test the following samples were used:
Medium: artificial gastric juice--aq. HCl/NaCl buffer, pH 1.2, according to USP XXII.
Concentration of clavulanic acid (abbr. KA) in samples: 4 mg/ml.
The samples 1 to 3 were dissolved under stirring in an artificial gastric juice (100 ml) thermostated at 37° C., at the concentration of 4 mg/ml with regard to the clavulanic acid. Subsequently, 100 μl aliquots were taken at 5 min intervals for analysis by the HPLC, until a more than 95% KA decomposition was found. The solution was stirred all the time at the temperature of 37° C. ±0.5° C.
Separately, a series of ten 10 ml aliquots of KA-TA-β-CD suspension in a buffer of a pH of 1.2 (cone. of KA=4 mg/ml), which were constantly stirred during thermostating at 37° C., was prepared. At time intervals of 5 to 10 min, the individual aliquots were filtered (membrane filter 0.4 μm) and in the clear filtrate the concentration of clavulanic acid was determined by HPLC. The KA content at times up to 90 min of thermostating was noted.
The results of measurements after 15, 30, 45, 60 and 90 min of thermostating the samples at 37° C. in a buffer at pH 1.2 are shown in following Table.

[2] = penicillinic and cephalosporin class; cited from earlier work
[3] = cited from earlier work
β-lactamases = conditions: cited from earlier work

| SMILES | remaining at 0.25 h ([1]; artificial gastric juice, 15 min thermostating, pH 1.2, 37° C., KA 4 mg/ml, read-out: KA (undecomp.) as to the initial KA conc. (100%) in samples) [%] | remaining at 0.5 h ([1]; artificial gastric juice, 30 min thermostating, pH 1.2, 37° C., KA 4 mg/ml, read-out: KA (undecomp.) as to the initial KA conc. (100%) in samples) [%] | remaining at 0.75 h ([1]; artificial gastric juice, 45 min thermostating, pH 1.2, 37° C., KA 4 mg/ml, read-out: KA (undecomp.) as to the initial KA conc. (100%) in samples) [%] | time of 95% decomposition of clavulanic acid (t95%) ([1]; pH 1.2, 37° C. (FIG. 9)) [min] | effect in combination with β-lactam antibiotics [2] | solubility in water (in words) [3] | inhibition of β-lactamases (in words) (β-lactamases) | time of 95% decomposition of clavulanic acid ([1]; conditions present in gastric juice, 37° C.) [min] |
| --- | --- | --- | --- | --- | --- | --- | --- | --- |
| O=C(O)[C@H]1/C(=C/CO)O[C@@H]2CC(=O)N21 [KK, potassium clavulanate] | 18.1 | 1.3 | 0 | 26 |  |  |  |  |
| O=C(O)[C@H]1/C(=C/CO)O[C@@H]2CC(=O)N21 [clavulanic acid, (2R,5R,Z)-3-(2-hydroxyethylidene)-7-oxo-4-oxa-1-azabicyclo[3.2.0]heptane-2-carboxylic acid] |  |  |  |  | synergistic effect | very well soluble in water | inhibitors of β-lactamases | 26 |
